pEC50: −log10 of the molar value. Where two headings read alike, the source gives them in different places.
Key:
[1] = target: T1, dCas9-based transcription-activation complex (Streptococcus pyogenes serotype M1, UniProt Q99ZW2, D10A, form not given); test: dCas9-based transcription activation of HBG1 in HEK293FT cells (RT-qPCR); format: cell-based, S. pyogenes; conditions: for pEC50: read-out: EC50, inhibition of the transcription activation complex; for inhibition of transcriptional activation: 20 μM
T1 construct: "dSpCas9|Feng Zhang lab|NA"; The MS2-p65-HSF1(-GFP) effector is a separate chain recruited through MS2 aptamers in the sgRNA
Experimental: Transcription activation experiments and quantitative RT-PCR analyses. HEK293FT cells were maintained in high glucose DMEM with glutamax (Life Technologies) and supplemented with 10% FBS (Life Technologies), 1% penicillin-streptomycin (Life Technologies) and 1 mM sodium pyruvate (Life Technologies). For transcription activation experiments, 20,000 cells/well were plated in a poly D-lysine-coated 96-well plate. The cells were transiently transfected with a 1:1:1 mass ratio of the dCas9 plasmid, MS2-P65-HSF1 effector plasmid and the sgRNA plasmid targeting the HBG1 gene or an RFP control plasmid. A total of 0.3 μg plasmid DNA was transfected using Lipofectamine 2000 (Life Technologies) according to manufacturer's protocol. Immediately after transfection, the cells were treated with an appropriate dose of the small-molecule inhibitors. A DMSO solution of compound (20 mM) was resuspended in the 10% FBS containing growth media and thoroughly mixedbefore adding to the cells. After 48 h the cells were lysed and 5 μL of the cell lysate was used to perform reverse transcription using the RevertAid RT Reverse Transcription Kit (Thermo Fischer Scientific) as described by Joung J. et al. qPCR reactions were performed to quantify RNA expression using the TaqMan probes (Life Technologies, HBG1/HBG2: Hs00361131_g1, ACTB: Hs01060665_g1) and TaqMan Fast Advanced Master Mix (Life Technologies) in 5 μL multiplexed reactions and 384-well format using the LightCycler 480 Instrument II (Roche). For each sample, four technical replicates were performed. Data were analyzed using the LightCycler 480 software (Roche) by the ΔΔCt method: Ct values for the gene of interest (HBG1) were normalized to Ct values for the housekeeping gene (ACTB), and fold-changes in the expression level of gene of interest were normalized to RFP-transfected control. The data is reported as mean±S.E.M. for technical replicates.

[2] = target: T2, SpCas9 (Streptococcus pyogenes serotype M1, UniProt Q99ZW2); test: eGFP-disruption assay in U2OS.eGFP.PEST cells; format: cell-based, S. pyogenes; design: host or cells: U2OS.eGFP.PEST; conditions: for inhibition at 15 µM: screen of structural analogs of BRD7087, 15 μM compound
Experimental: SpCas9 nuclease activity in eGFP-disruption assay. Approximately 200,000 U2OS.eGFP-PEST cells were nucleofected following two different methods either by nucleofecting plasmids or RNP using the SE Cell Line 4D-Nucleofector™ X Kit (Lonza) according to the manufacturer's protocol. In the plasmid nucleofection method, cells were nucleofected either with 440 ng of SpCas9 (Addgene Plasmid #43861) or 400 ng of SpCas9 along with 40 ng of sgRNA (pFYF1320 eGFP Site #1, Addgene Plasmid #47511). Cells nucleofected only with SpCas9-expressing plasmid were used as the transfection control. In the RNP nucleofection method, either […] SpCas9 or 20 pmol preformed SpCas9:gRNA (eGFP Site #1) complex were nucleofected. Approximately 20,000 transfected cells/well were plated in 4 replicates in a 96-well plate (Corning® 3904). Cells were incubated with the indicated amount of compound or DMSO for 24 h post transfection. A DMSO solution of compound (20 mM) was resuspended in the 10% FBS containing growth media and thoroughly mixed before adding to the cells. Cells were then fixed using 4% paraformaldehyde and imaged with the HCS NuclearMask™ Blue Stain (Life Technologies) as the nuclear counter-staining agent. Imaging was performed with an ImageXpress Micro automated microscope (Molecular Devices) at 10× magnification under three excitation channels (blue, green and red) acquiring nine sites per well. Images were analyzed using MetaXpress software and data were plotted using GraphPad Prism 6.
The Z′-value was calculated using the equation (1), where σ1 and σ2 are the standard deviations of DMSO control and SpCas9:gRNA control respectively. μ1 and μ2 are the mean % GFP^− cell population for DMSO control and SpCas9:gRNA control, respectively.

[3] = target: T2, SpCas9; test: HiBiT assay in U2OS.eGFP.PEST cells; format: cell-based, S. pyogenes; design: host or cells: U2OS.eGFP.PEST; conditions: 24 h
Experimental: HiBiT assay. For SpCas9 expression in cells, the previously described JDS246 plasmid was used (Kleinstiver et al., 2015b). ssODN donor DNA template with the HiBiT tag was purchased as single-stranded Ultramer DNA Oligonucleotides (IDT) and resuspended to 40 μM in nuclease-free water. For the assay, 2×10^5 cells were co-transfected with 300 ng Cas9 plasmid, 75 ng sgRNA plasmid and 100 ng ssODN using the DN-100 program of Lonza 4D nucleofector according to the manufacturer's protocols. For negative controls, either the sgRNA plasmid or the ssODN was omitted. 20,000 transfected cells were plated in each well of a 96-well plate (Corning 3904). Immediately after transfection, cells were treated with varying concentrations of BRD0539 or BRD3433 and incubated at 37° C. with 5% CO2. 24 h after transfection, the cells were washed once with PBS and kept in 80 μL PBS. An equal volume of the Nano-Glo HiBiT Lytic Reagent (Promega N3030), consisting of Nano-Glo HiBiT Lytic Buffer, Nano-Glo HiBiT Lytic Substrate, and LgBiT Protein, was added according to the manufacturer's protocol, and cells were incubated for 10 min at ambient temperature with shaking at 600 rpm (Schwinn et al., 2018a). The cells were then incubated for an additional 10 min without shaking at room temperature to allow equilibration of the HiBiT and LgBiT in the lysate. The lysate was then transferred to a white plate (Corning 3990) and luminescence was measured using an Envision plate reader (Perkin-Elmer) with 1 s of integration time.

[4] = target: T2, SpCas9; test: mKate2-disruption assay in HEK293T cells; format: cell-based, S. pyogenes; conditions: 1.5-5 μM, 24 h
Experimental: mKate2-disruption assay. Approximately 8,000 cells/well were seeded in a 96-well plate 24 h before transient transfection with 100 ng of either CgRNA (Addgene Plasmid #64955) or T1gRNA (Addgene Plasmid #62717) plasmids using Lipofectamine 2000 (Life Technologies). Transfected cells were allowed to grow in the indicated amount of small molecule or DMSO for 24 h. Cells were then fixed using 4% paraformaldehyde and imaged with the HCS NuclearMask™ Blue Stain (Life Technologies) as the nuclear counter-staining agent. Imaging was performed with an ImageXpress Micro automated microscope (Molecular Devices) at 20× magnification under two excitation channels (blue and red) with 9 acquisition sites per well. Images were analyzed using the MetaXpress software to determine the % mKate2 positive cells and data was plotted using GraphPad Prism 6. The Z′-value was calculated following the formula: Z′=1−(3(σ1+σ2))/(|μ1−μ2|) where σ1 and σ2 are the standard deviations of CgRNA transfected wells and T1gRNA transfected wells respectively. μ1 and μ2 are the mean % RFP^+ cell population for CgRNA transfected wells and T1gRNA transfected wells, respectively.

[5] = target: T2, SpCas9; test: NHEJ assay in HEK293T cells; format: cell-based, S. pyogenes; conditions: 2-10 μM, 24 h
Experimental: NHEJ assay. Approximately 8,000 cells/well were seeded in a 96-well plate 24 h before transient transfection with a total 100 ng of DN66 (mCherry—TAG—GFP reporter) and DN78 (SpCas9 and gRNA) plasmids (1:1) using Lipofectamine 2000 (Life Technologies) (Nguyen et al., 2016b). Transfected cells were incubated with the indicated amount of small molecule or DMSO for 24 h. Cells were then fixed using 4% paraformaldehyde and imaged with the HCS NuclearMask™ Blue Stain (Life Technologies) as the nuclear counter-staining agent. Imaging was performed with an ImageXpress Micro automated microscope (Molecular Devices) at 4× magnification under three excitation channels (blue, green and red) with 9 acquisition sites per well. Images were analyzed in the MetaXpress software to determine the % NHEJ and the data were plotted using GraphPad Prism 6. The Z′-value was calculated following the formula: Z′=1−(3(σ1+σ2))/(|μ1−μ2|) where σ1 and σ2 are the standard deviations of DN66 transfected wells and (DN66+DN78) transfected wells respectively. μ1 and μ2 are the mean % GFP cell population for DN66 transfected wells and (DN66+DN78) transfected wells respectively.

[6] = test system: U2OS.eGFP.PEST cells and HEK293T cells; test: Cell viability (ATP content); conditions: 5-20 μM, 24 h
[7] = target: T2, SpCas9; test: In vitro pull-down assay with preformed SpCas9:gRNA complex; format: binding, S. pyogenes; design: made in house; host or cells: E. coli Rosetta (DE3)
Experimental: In vitro pull-down assay. Pull-down of SpCas9 by biotinylated compound was performed by incubating a preformed SpCas9:gRNA complex with biotin-compound pre-loaded streptavidin magnetic beads. Initially, a 5 μM biotin compound was incubated with 120 μL streptavidin magnetic bead suspension for 30 min in 1× Cas9 activity buffer (20 mM Tris-HCl buffer, 150 mM KCl, 5 mM MgCl2, 1 mM DTT, pH 7.5). Next, beads were collected and washed with buffer twice and resuspended in 120 μL of 1× Cas9 activity buffer and distributed in 6 different tubes. A 0.3 μM of 480 μL of preformed SpCas9:gRNA complex were added to each tube along with the unlabeled BRD3433 compound (5 μM and 10 μM) in the competition experiment. The tubes were incubated at 4° C. for 12 h before collecting the beads and washed with 500 μL 1× Cas9 activity buffer. The beads were resuspended in 1× SDS gel loading buffer and denatured at 98° C. for 10 min. The samples were analyzed by electrophoresis followed by staining with Coomassie for 15 min before imaging.

[8] = 24 h, U2OS.eGFP.PEST cells, read-out: Average Inhibition activity
[9] = 24 h, U2OS.eGFP.PEST cells, read-out: Inhibition activity Rep 1
[10] = 24 h, U2OS.eGFP.PEST cells, read-out: Inhibition activity Rep 2

T2 sequence (Q99ZW2 whole entry): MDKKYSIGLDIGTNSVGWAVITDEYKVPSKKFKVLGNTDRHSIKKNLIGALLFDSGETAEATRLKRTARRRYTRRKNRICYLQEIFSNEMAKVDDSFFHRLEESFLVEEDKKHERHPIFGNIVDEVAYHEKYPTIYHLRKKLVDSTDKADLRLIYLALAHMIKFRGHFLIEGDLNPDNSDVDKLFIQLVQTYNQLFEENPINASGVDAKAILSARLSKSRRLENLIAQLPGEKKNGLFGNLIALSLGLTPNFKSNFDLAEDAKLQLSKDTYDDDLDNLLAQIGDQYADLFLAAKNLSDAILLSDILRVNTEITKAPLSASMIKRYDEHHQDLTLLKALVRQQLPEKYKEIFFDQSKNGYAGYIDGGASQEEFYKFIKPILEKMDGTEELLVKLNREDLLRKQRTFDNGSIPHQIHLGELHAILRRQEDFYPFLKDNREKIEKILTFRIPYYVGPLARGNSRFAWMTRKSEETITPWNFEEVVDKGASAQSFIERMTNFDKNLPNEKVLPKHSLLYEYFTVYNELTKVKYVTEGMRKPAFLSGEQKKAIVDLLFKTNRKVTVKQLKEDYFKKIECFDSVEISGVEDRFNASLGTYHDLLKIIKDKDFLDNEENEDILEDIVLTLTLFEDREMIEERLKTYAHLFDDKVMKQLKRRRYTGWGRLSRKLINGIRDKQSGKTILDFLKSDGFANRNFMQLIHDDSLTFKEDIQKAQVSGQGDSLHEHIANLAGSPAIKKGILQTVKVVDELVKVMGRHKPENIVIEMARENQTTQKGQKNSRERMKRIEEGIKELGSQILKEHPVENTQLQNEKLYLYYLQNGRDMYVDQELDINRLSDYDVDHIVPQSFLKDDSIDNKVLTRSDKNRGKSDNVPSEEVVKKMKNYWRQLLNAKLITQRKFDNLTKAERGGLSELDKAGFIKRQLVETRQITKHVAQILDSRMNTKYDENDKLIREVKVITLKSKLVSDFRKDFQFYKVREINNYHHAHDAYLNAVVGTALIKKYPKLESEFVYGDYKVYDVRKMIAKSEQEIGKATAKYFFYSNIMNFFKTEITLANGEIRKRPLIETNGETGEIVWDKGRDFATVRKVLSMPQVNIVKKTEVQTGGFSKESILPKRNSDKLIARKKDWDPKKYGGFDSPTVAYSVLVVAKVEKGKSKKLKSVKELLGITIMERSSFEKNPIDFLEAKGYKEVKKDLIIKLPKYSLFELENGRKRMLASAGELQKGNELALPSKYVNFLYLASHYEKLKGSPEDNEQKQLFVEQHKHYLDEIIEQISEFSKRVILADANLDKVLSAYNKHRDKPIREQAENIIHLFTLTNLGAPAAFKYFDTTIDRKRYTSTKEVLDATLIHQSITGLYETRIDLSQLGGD

Row | SMILES | pEC50 [1] | inhibition at 15 µM [2, 8] [%] | inhibition at 15 µM [2, 9] [%] | inhibition at 15 µM [2, 10] [%] | inhibition of transcriptional activation [1] [%] | also measured
1 | CN1c2ccc(C#Cc3cccnc3)cc2[C@H]2[C@H](CCN2C(=O)Nc2cc(F)ccc2F)[C@@H]1CO [BRD0048, (3aS,4R,9bR)—N-(2,5-difluorophenyl)-4-(hydroxymethyl)-5-methyl-8-(pyridin-3-ylethynyl)-2,3,3a,4,5,9b-hexahydro-1H-pyrrolo[3,2-c]quinoline-1-carboxamide] | 5.05 | 76.4 | 84.1 | 68.7 |  | 
2 | COc1cccc(-c2ccc3c(c2)[C@H]2[C@H](CCN2C(=O)Cc2ccncc2)[C@H](CO)N3C)c1 [BRD3433, 1-((3aS,4R,9bR)-4-(hydroxymethyl)-8-(3-methoxyphenyl)-5-methyl-2,3,3a,4,5,9b-hexahydro-1H-pyrrolo[3,2-c]quinolin-1-yl)-2-(pyridin-4-yl) ethan-1-one] |  | 78.6 | 82.2 | 74.9 |  | pEC50 ([2]; EC50, dose-dependent inhibition of SpCas9, U2OS.eGFP.PEST cells, 24 h, tested from 2.8-17.3 μM): 5.03; improvement in potency over BRD7087 ([2]; eGFP-disruption assay): 1.8 fold; pEC50 ([2]; eGFP-disruption assay, read-out: apparent EC50): 4.96; inhibition of SpCas9 in the HiBiT assay (in words) [3]: dose-dependent inhibition
3 | COc1ccc(-c2ccc3c(c2)[C@H]2[C@H](CCN2Cc2ccncc2)[C@@H](CO)N3)cc1 [BRD5779, ((3aR,4S,9bR)-8-(4-Methoxyphenyl)-1-(pyridin-4-ylmethyl)-2,3,3a,4,5,9b-hexahydro-1H-pyrrolo[3,2-c]quinolin-4-yl) methanol] |  |  |  |  | ~60 | inhibition of SpCas9 in the mKate2 disruption assay (in words) [4]: dose-dependent inhibition; inhibition of SpCas9 in the NHEJ assay (in words) [5]: dose-dependent inhibition; inhibition of SpCas9 in the eGFP-disruption assay (in words) ([2]; U2OS.eGFP.PEST cells): dose-dependent inhibition; cytotoxicity (in words) [6]: non-cytotoxic
4 | CN1c2ccc(C#Cc3cccnc3)cc2[C@@H]2[C@@H](CCN2C(=O)C2CCCCC2)[C@H]1CO [BRD20322, Cyclohexyl((3aR,4S,9bS)-4-(hydroxymethyl)-5-methyl-8-(pyridin-3-ylethynyl)-2,3,3a,4,5,9b-hexahydro-1H-pyrrolo[3,2-c]quinolin-1-yl) methanone] | 4.91 | 53.5 | 47.6 | 59.4 | 89 | 
5 | COc1cccc(-c2ccc3c(c2)[C@H]2[C@H](CCN2C(=O)Cc2ccncc2)[C@H](CNC(=O)CCOCCOCCOCCNC(=O)CCCC[C@@H]2SC[C@@H]4NC(=O)N[C@@H]42)N3C)c1 [biotinylated BRD3433, N-(1-((3aS,4R,9bR)-8-(3-methoxyphenyl)-5-methyl-1-(2-(pyridin-4-yl)acetyl)-2,3,3a,4,5,9b-hexahydro-1H-pyrrolo[3,2-c]quinolin-4-yl)-3-oxo-6,9,12-trioxa-2-azatetradecan-14-yl)-5-((3aS,4S,6aR)-2-oxohexahydro-1H-thieno[3,4-d]imidazol-4-y1) pentanamide] |  |  |  |  |  | pull-down of SpCas9 (gel electrophoresis) [7]: enrichment of SpCas9 in the eluent
